Laboratory results published in patent US8809368B2, “Compounds affecting gap junction activity” (Kansas State University Research Foundation, priority 2006, dated 2014).
Values after ≈ are worked out from the molar mass of the structure shown. Values joined by “and” are separate entries in the source; they are usually repeats but may differ in a detail not shown here. Identical values can stand only once.

Tests used:
PKCγ = test: Expression of PKCγ; format: cell-based; conditions: 100, 200, 300 and 500 nM, 24 hours
Procedure: However, PQ3 has an opposite effect on mammary cancer cell lines. […] A summary of PQ-mediated GJIC activity and colony growth in breast and colon cancer cells is presented in Tables 1, 2, and 3, as well as FIGS. 10-13. In FIG. 10, SW620 cells were dosed for 24 hours with PQ1 at 100, 200, 300, and 500 nM. The gap junction activity was measured as a percent of control, as previously described. It was seen that all concentrations on PQ1 increased the gap junction activity in SW620 colon cancer cells as compared to the control. In FIG. 11, the effect of PQ1 on the expression of PKCγ was studied at concentrations of 100, 200, 300 and 500 nM PQ1 for 24 hours. It is seen in FIG. 11 that PQ1 has no effect on the expression of PKCγ at the levels tested. In FIGS. 12 and 13, the effect of PQ1 on the colony growth of SW620 colon cancer cells was measured with 1-100 nM PQ1 (FIG. 12) and 10 uM PQ1 (FIG. 13).

MDA-MB-453 cells = test: Gap junction activity (GJIC), flow cytometry of dye coupling, MDA-MB-453 cells; format: cell-based, human; conditions: for effect on gap junction intercellular communication: Table 1
Procedure: FIG. 4(A) MDA-MB-453 and (B) T47D cells were treated with low (500 nM) and high (10 μM) concentrations of PQs for 24 hours. Monolayers of acceptor cell population were grown on 25-cm flasks in the presence of Vibrant DiD. Vybrant DiD in acceptor cells is not able to pass through the gap junctions because of its hydrophobic property. Single cell suspensions of donor treated cells were prepared, labeled with 0.05 μg/ml calcein-AM, incubated at 37 C for 5 minutes. Quantification of dye coupling between the donor and acceptor cells was assessed by dual-excitation flow cytometry. […] Cells treated with 10 μM PQ3 have approximately 40-50% decrease in gap junction activity compared control or DMSO.

HT29 = test: Gap junction intercellular communication, HT29 colon cancer cells; format: cell-based; conditions: Table 3
T47D breast cancer cells = test: Xenograft tumor growth of T47D cells in Nu/Nu mice; format: in vivo
Procedure: Mice were inoculated with 17β-estradiol (1.7 mg/pellet) before the injection of 1×10^7 T47D cells subcutaneously into the inguinal region of mammary fat pad. Animals received treatment at 1 μM PQ1 or 10 μM tamoxifen. The results after 6 days of injection show a decrease in tumor growth of PQ1-treated animals compared to control or tamoxifen.
The anti-tumor effect of PQ1 was also observed in animal model. Nu/Nu mice were inoculated with estradiol-17β (1.7 mg/pellet) before the injection of 1×10^7 T47D breast cancer cells subcutaneously into inguinal region of mammary fat pad.
Xenograft Tumors of T47D cells in Nu/Nu Mice. Nu/Nu mice were ordered from The Jackson Laboratory. Mice were inoculated with estradiol-17β (1.7 mg/pellet) before the injection of 1×10^7 T47D breast cancer cells subcutaneously into inguinal region of mammary fat pad. Cell viability of T47D cells were performed prior to injection. The tumor size was measured in three dimensions with calipers every 2 days starting at Day 7. […] When tumors reached 30-50 mm^3, three animals were randomly assigned to each treatment group. Animals were injected with 1 μM of PQ1 or 10 μM of tamoxifen and a single injection of treatment was set for 7 days and daily measurement of tumor size was recorded.

Solubility in water = format: physicochemical; conditions: succinic acid salt
Trypanosoma brucei = test: Anti-trypanosomal activity, inhibition of T. brucei growth (ATP-bioluminescence luciferase assay); format: cell-based; conditions: read-out: IC50 against Trypanosoma brucei
Procedure: The antiparasitic activities of exemplary compounds described here was studied using the anti-trypanosomal activity protocol described in: Rapp M, et al. J Med Chem 2006; 49:2096-102. […] FIG. 1 summarizes the compound inhibition of T. brucei growth. It is seen that compounds of the invention are useful in inhibiting T. brucei growth.
Culturing of Parasites. The bloodstream form of Trypanosoma brucei 427 strain was maintained under the standard cell culture conditions (37° C., 5% CO2). The parasites were grown in complete HMI-9 medium containing 10% FBS, 10% Serum Plus and 1× Penicillin/Streptomycin. (Angew. Chem. Int. Ed. Engl. 2003, 42, 5274-5293).
Luciferase Assay. Luciferase assay was used to measure ATP-bioluminescence in T. brucei cultured in 96-well plates at 37° C. for 48 hours. Parasites were diluted to 1.0×10^5 cells/mL in complete HMI-9 medium. One hundred microliters (100 μL) of the diluted parasites were aliquoted into sterile 96-well flat white opaque culture plates (Greiner). Each compound was serially diluted from 10 μM to 0.1 μM in DMSO and then mixed in the appropriate wells containing parasites. The treated parasites were then incubated for 48 hours at 37° C. with 5% CO2 before monitoring viability. To measure the viability of the parasites after treatment with each compound, the parasites were lysed in the wells by adding 100 μL of CellTiter-Glo™ (Promega). After lysis, the ATP bioluminescence of the 96-well plates was measured with a SpectraFluor Plus multidetection plate reader (Tecan).

[1] = test system: MDA-MB-453 human breast cancer cells; test: Soft agar colony growth, MDA-MB-453 cells; format: cell-based; conditions: for effect on breast cancer cell colony growth: Table 2
Procedure: FIG. 3(A) MDA-MB-453 and (B) T47D human breast cancer cells were treated with 10 μM of various quinolines for 7 days. Base agar plates were prepared containing 0.8% agar and 0.4% agar in Ham's F12. Cells (5×10^4 cells/33 mm well) were suspended in 100 μl of Ham's F12 with 0.4% agar and plated. These plates were maintained at 37° C. for 7 days and examined for the presence of colonies. Individual colonies of 40 μm or greater were examined. […] However, PQ3 caused a 2.3-fold increase in colony growth in MDA-MB-453 cells and PQ2 caused a 2.6-fold increase in T47D colony growth compared to DMSO. FIGS. 7 and 8 show MDA-MB-453 and T47D colony growth for various concentrations of PQ1 and SA tested for 7 days. The procedures are generally as described above. The cell colony growth decreased using 10 and 100 nM PQ1 for both cell types. Colony Growth Assay: T47D human breast cancer cells were treated with PQ1. Base agar plates were prepared containing 0.8% agar and 0.4% agar in Ham's F12. Cells (5×10^4 cells/33 mm2 well) were suspended in 100 μl of Ham's F12 with 0.4% agar and plated. These plates were maintained at 37° C. for 7 days and examined for the presence of colonies. Individual colonies of 40 um or greater were examined.

| SMILES | expression of PKCγ (PKCγ) | increase of gap junction activity (MDA-MB-453 cells; MDA-MB-453, 500 nM, 24 hours, compared to control) [fold] | increase in GJIC (MDA-MB-453 cells; MDA-MB-453, FIG. 4, 24 hours) | effect on gap junction intercellular communication (MDA-MB-453 cells; MDA-MB-453, 500 nM) | effect on gap junction intercellular communication (HT29) | tumor size compared to control (T47D breast cancer cells; Day 2, 1 μM PQ1, single injection) | decrease of tumor growth (T47D breast cancer cells; Day 6 after one injection, 1 μM PQ1, compared to control) [%] | tumor growth compared to control or tamoxifen (T47D breast cancer cells; after 6 days of injection, 1 μM PQ1) | solubility in water (Solubility in water) | IC50 (Trypanosoma brucei) [µg/mL] | colony growth attenuation ([1]; 10 μM, 7 days, compared to control) | cell colony growth ([1]; 10 and 100 nM, 7 days) | effect on breast cancer cell colony growth [1] | decrease in gap junction activity (GJIC) (MDA-MB-453 cells; 10 μM, 24 hours, compared to control or DMSO) | effect on gap junction intercellular communication (MDA-MB-453 cells; MDA-MB-453, concentration not given) |
| --- | --- | --- | --- | --- | --- | --- | --- | --- | --- | --- | --- | --- | --- | --- | --- |
| COc1cc(NCCCN)c2nccc(C)c2c1Oc1cccc(C(F)(F)F)c1.O=C(O)CCC(=O)O [PQ1, 6-Methoxy-8-[(3-aminopropyl)amino]-4-methyl-5-(3-trifluoromethylphenyloxy) quinoline succinic acid] | no effect | 1.5 | 20-50% | Increase | No effect | decrease | 70 | decrease | soluble in water | 0.34 | 80-95% | decreased | Decrease | – | – |
| COc1cc(N)c2nccc(C)c2c1Oc1cccc(C(F)(F)F)c1 [PQ3, 8-Amino-6-methoxy-4-methyl-5-(3-trifluoromethylphenyloxy)quinoline] | – | – | – | – | Increase | – | – | – | – | 1.08 (≈ 3.11 µM) | – | – | Increase | 40-50% and 50% | Decrease |
